Source: ChEMBL document CHEMBL1155400, “The design and development of 2-aryl-2-hydroxy ethylamine substituted 1H,7H-pyrido[1,2,3-de]quinoxaline-6-carboxamides as inhibitors of human cytomegalovirus polymerase” (Bioorg Med Chem Lett, 2010)
Converted amounts (≈) assume the structure as drawn.

Assays:
[1] = Inhibition of HCMV recombinant DNA polymerase expressed in baculovirus infected SF9 cells after 12 mins by scintillation proximity assay; set-up: species or system Human betaherpesvirus 5
Human betaherpesvirus 5 = assay: Antiviral activity against Human cytomegalovirus infected in HFF cells by plaque reduction assay; type: functional, organism-based; details: Human betaherpesvirus 5, HFF
[2] = Aqueous solubility of the compound; type: physicochemical
[3] = Cytotoxicity against HFF cells after 3 days by […] dye uptake assay; type: cell-based; details: human
Human alphaherpesvirus 3 = assay: Antiviral activity against Varicella zoster virus infected in HFF cells by plaque reduction assay; type: functional, organism-based; details: Human alphaherpesvirus 3, HFF
[4] = biological target: T1, DNA polymerase alpha catalytic subunit (Homo sapiens, UniProt P09884); assay: Inhibition of human recombinant DNA polymerase alpha expressed in baculovirus infected SF9 cells after 12 mins by scintillation proximity assay
T1 sequence (P09884 whole entry): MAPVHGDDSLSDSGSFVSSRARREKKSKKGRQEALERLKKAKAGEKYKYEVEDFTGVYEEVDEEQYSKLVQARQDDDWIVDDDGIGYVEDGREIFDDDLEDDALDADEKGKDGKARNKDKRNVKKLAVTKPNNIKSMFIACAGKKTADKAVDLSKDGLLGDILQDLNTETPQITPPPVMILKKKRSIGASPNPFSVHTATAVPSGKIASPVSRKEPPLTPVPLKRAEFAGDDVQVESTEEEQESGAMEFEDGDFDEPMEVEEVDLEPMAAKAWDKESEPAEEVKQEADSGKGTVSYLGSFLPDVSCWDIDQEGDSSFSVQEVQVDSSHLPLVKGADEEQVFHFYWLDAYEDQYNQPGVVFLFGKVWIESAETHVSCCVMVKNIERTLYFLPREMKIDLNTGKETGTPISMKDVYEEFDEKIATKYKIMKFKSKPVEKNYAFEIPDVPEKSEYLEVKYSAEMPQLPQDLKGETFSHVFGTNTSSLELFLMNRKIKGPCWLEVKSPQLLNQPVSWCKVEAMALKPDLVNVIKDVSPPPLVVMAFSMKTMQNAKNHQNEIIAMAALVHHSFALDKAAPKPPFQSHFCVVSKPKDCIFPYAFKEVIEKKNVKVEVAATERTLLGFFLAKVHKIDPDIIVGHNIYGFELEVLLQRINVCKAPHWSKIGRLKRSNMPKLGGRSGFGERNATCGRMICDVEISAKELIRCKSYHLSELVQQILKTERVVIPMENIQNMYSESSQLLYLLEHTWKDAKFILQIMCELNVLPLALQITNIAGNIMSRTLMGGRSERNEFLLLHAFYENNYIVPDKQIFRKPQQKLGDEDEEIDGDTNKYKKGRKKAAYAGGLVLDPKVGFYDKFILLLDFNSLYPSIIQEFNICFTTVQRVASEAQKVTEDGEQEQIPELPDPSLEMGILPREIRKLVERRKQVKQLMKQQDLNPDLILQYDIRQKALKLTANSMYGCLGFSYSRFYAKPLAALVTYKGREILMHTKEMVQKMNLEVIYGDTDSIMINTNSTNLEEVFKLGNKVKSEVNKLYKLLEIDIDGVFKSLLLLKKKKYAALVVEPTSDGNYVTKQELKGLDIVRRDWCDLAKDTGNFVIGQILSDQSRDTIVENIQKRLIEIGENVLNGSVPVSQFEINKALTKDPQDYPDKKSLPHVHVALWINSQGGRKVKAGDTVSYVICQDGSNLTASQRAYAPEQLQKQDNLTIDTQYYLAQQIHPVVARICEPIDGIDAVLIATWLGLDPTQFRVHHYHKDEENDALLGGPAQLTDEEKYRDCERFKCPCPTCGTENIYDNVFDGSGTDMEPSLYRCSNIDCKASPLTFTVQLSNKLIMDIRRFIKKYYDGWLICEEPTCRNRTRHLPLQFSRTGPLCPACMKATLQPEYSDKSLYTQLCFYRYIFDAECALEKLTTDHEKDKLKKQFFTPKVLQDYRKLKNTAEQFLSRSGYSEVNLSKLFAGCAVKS

[5] = Inhibition of Varicella zoster virus recombinant DNA polymerase expressed in baculovirus infected SF9 cells after 12 mins by scintillation proximity assay; set-up: species or system Human alphaherpesvirus 3

SMILES	IC50 [1]	IC50 (Human betaherpesvirus 5)	CC50 at 72 h [3]	further results
CN(Cc1cc2c3c(c1)c(=O)c(C(=O)NCc1ccc(Cl)cc1)cn3CC(=O)N2C)C[C@H](O)c1ccsc1	5720 nM			
CN(Cc1cc2c3c(c1)c(=O)c(C(=O)NCc1ccc(Cl)cc1)cn3CC(=O)N2C)C[C@@H](O)c1nccs1	490 nM	100 nM		
CN(Cc1cc2cc(CCO)n3cc(C(=O)NCc4ccc(Cl)cc4)c(=O)c(c1)c23)C[C@@H](O)c1cnccn1	14 nM	10 nM		solubility [2]: 17 µg/mL (≈ 31.1 µM)
O=C(NCc1ccc(Cl)cc1)c1cn2c3c(cc(CN4CCOCC4)cc3c1=O)N(CCO)C(=O)C2	830 nM	700 nM		
O=C(NCc1ccc(Cl)cc1)c1cn2c3c(cc(CN4CCOCC4)cc3c1=O)N(CCCO)C(=O)C2	1840 nM			
CN(Cc1cc2c3c(c1)c(=O)c(C(=O)NCc1ccc(Cl)cc1)cn3CC(=O)N2C)C[C@@H](O)c1cccnc1	150 nM	10 nM	> 15000 nM	
CN(Cc1cc2c3c(c1)c(=O)c(C(=O)NCc1ccc(Cl)cc1)cn3CC(=O)N2C)C[C@H](O)c1cnccn1	7700 nM			
CN(Cc1cc2c3c(c1)c(=O)c(C(=O)NCc1ccc(Cl)cc1)cn3CC(=O)N2C)C[C@H](O)c1cccnc1	4550 nM			
Cn1cc(C(=O)NCc2ccc(Cl)cc2)c(=O)c2cc(CCCO)sc21	400 nM	600 nM		
CN(Cc1cc2c3c(c1)c(=O)c(C(=O)NCc1ccc(Cl)cc1)cn3CC(=O)N2C)C[C@@H](O)c1ccsc1	190 nM	100 nM	> 15000 nM	
CCN1C(=O)Cn2cc(C(=O)NCc3ccc(Cl)cc3)c(=O)c3cc(CN4CCOCC4)cc1c32	1280 nM			
Nc1nc2c(ncn2COCCO)c(=O)[nH]1 [ACYCLOVIR]		20000 nM		
CN(Cc1cc2c3c(c1)c(=O)c(C(=O)NCc1ccc(Cl)cc1)cn3CC(=O)N2C)C[C@H](O)c1nccs1	6200 nM			
CN(Cc1cc2c(=O)c(C(=O)NCc3ccc(Cl)cc3)cn(C)c2o1)C[C@@H](O)c1ccco1	76 nM	26 nM		
CN(Cc1cc2c3c(c1)c(=O)c(C(=O)NCc1ccc(Cl)cc1)cn3CC(=O)N2C)C[C@@H](O)c1cnccn1	260 nM	200 nM		
Cn1cc(C(=O)NCc2ccc(Cl)cc2)c(=O)c2cc(CN3CCOCC3)ccc21	690 nM	300 nM		
O=C(NCc1ccc(Cl)cc1)c1cn2c3c(cc(CN4CCOCC4)cc3c1=O)N(CCCN1CCOCC1)C(=O)C2	4410 nM			
CN1C(=O)Cn2cc(C(=O)NCc3ccc(Cl)cc3)c(=O)c3cc(CN4CCOCC4)cc1c32	620 nM	100 nM		IC50 (Human alphaherpesvirus 3): 20 nM; IC50 [4]: > 5000 nM; IC50 [5]: 180 nM; solubility [2]: 8.6 µg/mL (≈ 17.9 µM)
CN(Cc1cc2c(=O)c(C(=O)NCc3ccc(Cl)cc3)cn(C)c2s1)C[C@@H](O)c1ccco1	35 nM	7 nM		solubility [2]: 0.19 µg/mL (≈ 0.391 µM)

Continued, in another order:

IC50 [1]	IC50 (Human betaherpesvirus 5)	SMILES	CC50 at 72 h [3]	further results
110 nM	10 nM	CN(Cc1cc2c3c(c1)c(=O)c(C(=O)NCc1ccc(Cl)cc1)cn3CC(=O)N2C)C[C@@H](O)c1ccco1	> 15000 nM	
180 nM	90 nM	CN(Cc1cc2c3c(c1)c(=O)c(C(=O)NCc1ccc(Cl)cc1)cn3CC(=O)N2C)C[C@H](O)c1cc2ccccc2o1	> 15000 nM	
130 nM	100 nM	CN(Cc1cc2c3c(c1)c(=O)c(C(=O)NCc1ccc(Cl)cc1)cn3CC(=O)N2C)C[C@@H](O)c1ccccc1	> 15000 nM	
5250 nM		CN(Cc1cc2c3c(c1)c(=O)c(C(=O)NCc1ccc(Cl)cc1)cn3CC(=O)N2C)C[C@H](O)c1ccccn1		
4930 nM		CN(Cc1cc2c3c(c1)c(=O)c(C(=O)NCc1ccc(Cl)cc1)cn3CC(=O)N2C)C[C@H](O)c1ccco1		
9160 nM		CN(Cc1cc2c3c(c1)c(=O)c(C(=O)NCc1ccc(Cl)cc1)cn3CC(=O)N2C)C[C@H](O)c1ccccc1		
42 nM		CN(Cc1cc2c3c(c1)c(=O)c(C(=O)NCc1ccc(Cl)cc1)cn3CC(=O)N2C)CC(O)c1ccc2ccccc2n1 (racemic)	> 15000 nM	
4 nM	1 nM	CN(Cc1cc2c3c(c1)c(=O)c(C(=O)NCc1ccc(Cl)cc1)cn3CC(=O)N2C)C[C@@H](O)c1cc2ccccc2o1	> 15000 nM	IC50 (Human alphaherpesvirus 3): 4 nM; IC50 [4]: > 5000 nM; IC50 [5]: 29 nM; solubility [2]: 0.94 µg/mL (≈ 1.61 µM)
97 nM	100 nM	CN(Cc1cc2c3c(c1)c(=O)c(C(=O)NCc1ccc(Cl)cc1)cn3CC(=O)N2C)CC(O)c1csc2ccccc12 (racemic)	> 15000 nM	
300 nM	20 nM	CN(Cc1cc2c3c(c1)c(=O)c(C(=O)NCc1ccc(Cl)cc1)cn3CC(=O)N2C)C[C@@H](O)c1ccccn1	> 15000 nM	
8 nM		CN(Cc1cc2c3c(c1)c(=O)c(C(=O)NCc1ccc(Cl)cc1)cn3CC(=O)N2C)CC(O)c1cc2ccccc2o1 (racemic)	> 15000 nM	
